What was measured:
Assay type in all cases: in vivo
Poa annua (POAAN) [1] = test: Pre-emergence herbicide efficacy at 320 g/ha, greenhouse pot test; details: visual scoring vs untreated control after about 3 weeks
Description: (§1) Seeds of mono- and dicotyledonous weed plants were placed in plastic pots in sandy loam soil (doubly sown with in each case one species of mono- or dicotyledonous weed plants per pot) and covered with soil. The compounds of the invention, formulated in the form of wettable powders (WP) or as emulsion concentrates (EC), were then applied onto the surface of the covering soil as aqueous suspension or emulsion with addition of 0.5% additive at a water application rate of 600 liters per hectare (converted). After the treatment, the pots were placed in a greenhouse and kept under good growth conditions for the test plants. After about 3 weeks, the effect of the preparations was scored visually in comparison with untreated controls as percentages. For example, 100% activity=the plants have died, 0% activity=like control plants. Tables C1 to C12 below show the effects of selected compounds of the general formula (I) according to Table 1 on various harmful plants and an application rate corresponding to 320 g/ha, which were obtained by the experimental procedure mentioned above.

[2] = tested on: Amaranthus retroflexus (AMARE); test: as above; details: visual scoring vs untreated control after about 3 weeks
Description: as §1

[3] = tested on: Abutilon theophrasti (ABUTH); test: as above; details: visual scoring vs untreated control after about 3 weeks
Description: as §1

Stellaria media (STEME) [4] = test: as above; details: visual scoring vs untreated control after about 3 weeks
Description: as §1

[5] = tested on: Amaranthus retroflexus (AMARE); test: Post-emergence herbicidal efficacy at 320 g/ha, greenhouse pot test; details: visual rating vs untreated control after about 3 weeks
Experimental: (§2) Seeds of mono- and dicotyledonous weed plants were placed in plastic pots in sandy loam soil (doubly sown with in each case one species of mono- or dicotyledonous weed plants per pot), covered with soil and cultivated in a greenhouse under controlled growth conditions. 2 to 3 weeks after sowing, the test plants were treated at the one-leaf stage. The compounds of the invention, formulated in the form of wettable powders (WP) or as emulsion concentrates (EC), were applied onto the green parts of the plants as aqueous suspension or emulsion with addition of 0.5% additive at a water application rate of 600 liters per hectare (converted). After the test plants had been kept in the greenhouse under optimum growth conditions for about 3 weeks, the activity of the preparations was rated visually in comparison to untreated controls. For example, 100% activity=the plants have died, 0% activity=like control plants. Tables […] 11 below show the effects of selected compounds of the general formula (I) according to Table 1 on various harmful plants and an application rate corresponding to 320 g/ha, which were obtained by the experimental procedure mentioned above.

[6] = tested on: Matricaria inodora (MATIN); test: Pre-emergence herbicide efficacy at 320 g/ha, greenhouse pot test; details: visual scoring vs untreated control after about 3 weeks
Description: as §1

Bassia scoparia (KCHSC) = test: as above; details: dosage 1280 g/ha in Table C6, visual scoring after about 3 weeks
Description: as §1

Poa annua (POAAN) [7] = test: Post-emergence herbicidal efficacy at 320 g/ha, greenhouse pot test; details: visual rating vs untreated control after about 3 weeks
Experimental: as §2

Veronica persica (VERPE) [8] = test: as above; details: 320 g/ha, visual rating vs untreated control after about 3 weeks
Experimental: as §2

Stellaria media (STEME) [9] = test: as above; details: visual rating vs untreated control after about 3 weeks
Experimental: as §2

[10] = tested on: Echinochloa crus-galli (ECHCG); test: Pre-emergence herbicide efficacy at 320 g/ha, greenhouse pot test; details: visual scoring vs untreated control after about 3 weeks
Description: as §1

[11] = tested on: Abutilon theophrasti (ABUTH); test: Post-emergence herbicidal efficacy at 320 g/ha, greenhouse pot test; details: visual rating vs untreated control after about 3 weeks
Experimental: as §2

Veronica persica (VERPE) [12] = test: Pre-emergence herbicide efficacy at 320 g/ha, greenhouse pot test; details: visual scoring vs untreated control after about 3 weeks
Description: as §1

Setaria viridis (SETVI) = test: as above; details: visual scoring vs untreated control after about 3 weeks
Description: as §1

Row | SMILES | Pre-emergence efficacy against Poa annua (POAAN) (Poa annua (POAAN) [1]) [%] | Pre-emergence efficacy against Amaranthus retroflexus (AMARE) [2] [%] | Pre-emergence efficacy against Abutilon theophrasti (ABUTH) [3] [%] | Pre-emergence efficacy against Stellaria media (STEME) (Stellaria media (STEME) [4]) [%] | Post-emergence efficacy against Amaranthus retroflexus (AMARE) [5] [%] | Pre-emergence efficacy against Matricaria inodora (MATIN) [6] [%] | Pre-emergence efficacy against Bassia scoparia (KCHSC) (Bassia scoparia (KCHSC)) [%] | Post-emergence efficacy against Poa annua (POAAN) (Poa annua (POAAN) [7]) [%] | Post-emergence efficacy against Veronica persica (VERPE) (Veronica persica (VERPE) [8]) [%] | Post-emergence action against Stellaria media (STEME) (Stellaria media (STEME) [9]) [%] | Pre-emergence efficacy against Echinochloa crus-galli (ECHCG) [10] [%] | Post-emergence efficacy against Abutilon theophrasti (ABUTH) [11] [%] | Pre-emergence efficacy against Veronica persica (VERPE) (Veronica persica (VERPE) [12]) [%] | Pre-emergence efficacy against Setaria viridis (SETVI) (Setaria viridis (SETVI)) [%]
1 | Cc1ccc(-c2cc(C(F)F)on2)c(Oc2ncc(Cl)cn2)n1 [Example I-12] | 100 | 100 | 90 | 90 | – | – | – | – | – | – | – | – | – | –
2 | Cc1ccc(-c2cc(C(F)F)on2)c(Oc2ncc(F)cn2)n1 [Example I-13] | – | – | – | – | 90 | – | – | – | – | – | – | – | – | –
3 | Cc1cc(C)c(-c2cc(C(F)F)no2)c(Oc2ncc(C#N)cn2)n1 [Example I-46] | – | 90 | 90 | 90 | 100 | 100 | 90 | 90 | 100 | 100 | – | – | – | –
4 | Cc1cc(C)c(-c2cc(C3CC3)no2)c(Oc2ncc(Cl)cc2F)n1 [Example I-180] | 100 | 100 | – | 100 | – | 100 | – | – | 90 | 100 | – | – | – | –
5 | Cc1cc(C)c(-c2cc(CC3CC3)no2)c(Oc2ncc(F)cn2)n1 [Example I-200] | 90 | 100 | 90 | 100 | 90 | 90 | – | – | 90 | 90 | 90 | – | – | –
6 | Cc1cc(C)c(-c2cc(CC3CC3)no2)c(Oc2ncc(Cl)cn2)n1 [Example I-201] | 100 | 90 | 90 | 90 | – | – | 90 | – | 90 | 90 | – | 90 | – | –
7 | Cc1cc(C)c(-c2cc(CC3CC3)no2)c(Oc2ncc(Cl)cc2F)n1 [Example I-202] | – | 90 | – | 100 | – | – | – | 100 | – | 90 | – | – | – | –
8 | Cc1cc(C)c(-n2cccn2)c(Oc2ncc(F)cn2)n1 [Example I-244] | – | – | – | – | – | – | 90 | – | – | – | – | – | 90 | –
9 | Cc1cc(C)c(-n2cccn2)c(Oc2ncc(Cl)cn2)n1 [Example I-245] | – | 100 | 90 | 100 | – | 90 | 100 | – | – | – | – | – | – | –
10 | Cc1cc(C)c(-n2cc(Br)cn2)c(Oc2ncc(Cl)cn2)n1 [Example I-278] | – | – | 100 | 100 | 100 | – | 100 | – | 90 | 90 | 100 | – | 100 | –
11 | Cc1cc(C)c(-c2cc(C(F)F)no2)c(Oc2ncc(Cl)cc2Cl)n1 [Example I-288] | 90 | – | – | 90 | 100 | – | 90 | 90 | 90 | 90 | – | – | – | –
12 | Cc1cc(C)c(-c2cc(C(F)F)no2)c(Oc2ncc(F)cc2C#N)n1 [Example I-289] | – | – | – | 90 | 100 | – | 90 | 90 | 90 | 90 | – | – | – | –
13 | Cc1cc(C)c(-c2cc(C(F)F)no2)c(Oc2ncc(Cl)cc2C#N)n1 [Example I-290] | – | – | – | – | 100 | – | – | – | 90 | – | – | – | – | –
14 | Cc1cc(C)c(-c2cc(C(F)F)no2)c(Oc2ncc(Br)cc2C#N)n1 [Example I-291] | – | – | – | – | 90 | – | 90 | – | 90 | – | – | – | – | –
15 | Cc1cc(C)c(-c2cc(C3CC3)no2)c(Oc2ncc(Br)cn2)n1 [Example I-296] | 100 | 100 | 100 | 100 | 90 | 100 | 100 | 90 | 100 | 100 | 90 | – | 90 | 100
16 | Cc1cc(C)c(-c2cc(C3(C)CC3)no2)c(Oc2ncc(Cl)cn2)n1 [Example I-297] | – | 90 | 90 | 100 | – | 100 | – | – | 90 | – | – | – | – | –
17 | Cc1cc(C)c(-c2cc(C3(C)CC3)no2)c(Oc2ncc(Br)cn2)n1 [Example I-298] | – | 90 | – | 100 | – | 90 | – | – | 90 | 90 | – | 90 | – | –
18 | Cc1cc(C)c(-c2cc(C3(C)CC3)no2)c(Oc2ncc(F)cn2)n1 [Example I-299] | 90 | 100 | 90 | 100 | – | – | – | – | 90 | 90 | 90 | 90 | – | 90
19 | Cc1cc(C)c(-c2cc(CC3CC3)no2)c(Oc2ncc(Br)cn2)n1 [Example I-300] | – | – | – | 90 | – | – | – | – | – | 90 | – | – | – | –
20 | Cc1cc(C)c(-c2cc(C3(C)CC3)no2)c(Oc2ncc(Cl)cc2F)n1 [Example I-301] | – | – | – | – | – | – | – | – | 90 | 90 | – | – | – | –

From US20230303549A1, “SUBSTITUTED HETEROARYLOXYPYRIDINES, THE SALTS THEREOF AND THEIR USE AS HERBICIDAL AGENTS” (Bayer Aktiengesellschaft, priority 2020, published 2023)
